Experimental data taken from patent publication US20090239217A1, “STEM-LIKE CELLS IN BONE SARCOMAS” (University of Florida Research Foundation, Inc., priority 2008, published 2009).

Columns and labels:
Oct-4/GFP+ OS521 cells = test: Tumor formation in NOD/SCID mice after in vitro pretreatment of Oct-4/GFP-enriched OS521 cells with differentiation inducers; format: in vivo; settings: 3×10^4 cells per mouse
Description: It was hypothesized that if the Oct-4/GFP+ tumorigenic cells reflected a stem-like phenotype, their tumorigenic ability might also be inhibited by forced cellular differentiation. Therefore prior to delivery into the NOD/SCID mouse model, the Oct-4/GFP-enriched cell populations were pretreated in vitro with three different compounds known to be potent inducers of differentiation: ATRA, leukemia inhibitory factor (LIF), and recombinant bone morphogenetic protein (BMP) 4/7 heterodimer and evaluated their effect of each on tumorigenicity.
Following delivery of Oct-4/GFP transfected OS521 cells into NOD/SCID mice, cells isolated from the resultant tumors were sorted by FACS and the GFP-enriched population was plated in 12 well plates and treated with either LIF (10^4 to 0.5×10^2 U/ml), ATRA (1 μM), or recombinant BMP 4/7 (100 ng/ml) for 72 hours. Untreated cells were used as controls. Following the incubation period, 5 NOD/SCID mice per group were injected at 3×10^4 cells per mouse with cells from each treated pool and the mice were monitored for subsequent tumor formation. […] The BMPs are members of the TGF-β superfamily and are known to be potent agents of cellular differentiation, particularly with respect to chondro- and osteoinduction of mesenchymal progenitor cells. BMP 4/7 appears to inhibit the tumorigenesis of the Oct-4/GFP+ OS521 cells after transient induction.

Oct-4/EGFP expression = Oct-4/EGFP expression in osteosarcoma cultures treated in vitro; format: cell-based; settings: osteosarcoma cultures in DMEM with 75-100 ng/ml BMP4/7; FIG. 13
Protocol: (§1) Cells were cultured in DMEM and 75-100 ng/ml of BMP4/7 (control cells were not cultured with BMP4/7).

osteosarcoma cultures = test: Tumor generation by osteosarcoma cells cultured with BMP4/7; format: in vivo; settings: cells cultured in DMEM with 75-100 ng/ml BMP4/7; 10 weeks post-treatment
Protocol: as §1

CC1=C(/C=C/C(C)=C/C=C/C(C)=C/C(=O)O)C(C)(C)CCC1 [ATRA, reference compound]
tumor formation (Oct-4/GFP+ OS521 cells; GFP-enriched OS521 cells treated with ATRA 1 μM for 72 hours): tumor formation by 5 weeks

leukemia inhibitory factor [LIF]
tumor formation (Oct-4/GFP+ OS521 cells; GFP-enriched OS521 cells treated with LIF 10^4 to 0.5×10^2 U/ml for 72 hours): tumor formation by 5 weeks

recombinant bone morphogenetic protein (BMP) 4/7 heterodimer [BMP 4/7]
tumor formation (Oct-4/GFP+ OS521 cells; GFP-enriched OS521 cells treated with recombinant BMP 4/7 100 ng/ml for 72 hours, followed twelve weeks): none of the mice in the BMP 4/7 treated group developed tumors by twelve weeks
Oct-4/EGFP expression (Oct-4/EGFP expression): affects Oct-4/EGFP expression
tumor generation by treated cells (osteosarcoma cultures): have not yet generated tumors
